Test results published in patent publication US7176035B2, “Protein-protein interactions and methods for identifying interacting proteins and the amino acid sequence at the site of interaction” (priority 1999, dated 2007).
Where no end group is shown, it is not given here.

Tests used:
[1] = tested on: 57 kDa protein (α- and β-tubulins); assay: Binding of rod-fixed overlapping hexapeptides of P-gp linker domains to [35S]methionine-labeled total cell lysate, SDS-PAGE; conditions: for binding affinity to the 57 kDa protein in the overlapping hexapeptide scan: total cell lysate from [35S]methionine labeled CEM or CEM/VLB1.0 cells, bound proteins eluted with SDS, 10% SDS-PAGE; for binding of resynthesized hexapeptide to the 57 kDa protein: total cell lysate from [35S]methionine labeled cells, 24 hour or 48 hour incubation (FIG. 11)
Procedure: Pre-derivatized plastic rods, active ester and polypropylene trays were purchased from Cambridge Research Biochemicals (Valley Stream, N.Y.). Peptides were synthesized on solid polypropylene rods as previously described (36, 37). Briefly, the F-moc protecting group on the prederivatized polypropylene rods as solid support (arranged in a 96-well formate) was removed by incubation with 20% (v/v) piperidine in dimethylformamide (DMF) for 30 minutes with shaking. Following the deprotection of the β-alanine spacer on the polypropylene rods, Fmoc protected amino acids were dissolved in HOBt/DMF and added to the appropriate wells containing deprotected rods. Coupling of amino acids was allowed to take place for 18 hours at room temperature after which the rods were washed in DMF (1×2 minutes), methanol (4×2 minutes), and DMF (1×2 minutes). The coupling of the second amino acid required the deprotection of the F-moc amino protecting group of the first amino acid and incubation of the rods with the second preactivated F-moc-protected amino acids (pentafluorophenyl derivatives). The reaction was allowed to proceed for 18 hours, and the rods were removed and washed as indicated above. The same steps were repeated for each amino acid coupling until the sixth amino acid was coupled. Following the last coupling step, the F-moc N-terminal protecting group was removed with 20% piperidine/DMF and the free amino group acetylated for 90 minutes in an acetylation cocktail containing acetic anhydride:diisopropylethylamine (DIEA):DMF (50:1:50 v/v/v). The side chain protecting groups of the N-terminal acetylated hexapeptides onto the polypropylene rods were removed by incubation in a cleavage mixture containing trifluoroacetic acid:phenol:ethandithiol (95:2.5:2.5 v/v/v) for 4 hours at room temperature. After the cleavage step the rods were washed with dichloromethane (DCM) and neutralized in 5% (v/v) DIEA/DCM. The deprotected peptide-coupled rods were washed in DCM, methanol and vacuum dried for 18 hours.
Following metabolic labeling of proteins with [^35S] methionine, cells were washed 3 times with phosphate buffered saline (PBS) and resuspended in hypotonic buffer (10 mM KCl, 1.5 mM MgCl2, 10 mM Tris-HCl, pH 7.4) containing protease inhibitors (2 mM PMSF, 3 μg/ml Leupeptin, 4 μg/ml pepstatin A and 1 μg/ml aprotinin) and kept on ice for 30 minutes. […] The amount of protein in the above samples was determined by the method of Lowry (69).
For a binding assay, [^35S] methionine labeled proteins from total cell lysate were mixed with equal volume of 3–6% BSA in phosphate buffered saline (PBS) and incubated with overlapping hexapeptides covalently fixed to polypropylene rods. […] The peptides-fixed rods are now ready for the next round of screening. […]

~41 kDa protein = assay: Resynthesized high affinity hexapeptides incubated with total cell lysate; type: binding; conditions: total cell lysate from [35S]methionine labeled cells (FIG. 11); level rises with longer incubation
Procedure: Two high affinity binding sequences ^658RSSLIR^663 (SEQ ID NO: 7) and ^669SVRGSQ^674 (SEQ ID NO: 8) from HP-gp1 linker domain were resynthesized and incubated with total cell lysate from [^35S] methionine metabolically labeled cells following 24 hour or 48 hour incubation times. Bound proteins were eluted from peptide-fixed rods and resolved by 10% SDS-PAGE. The migration of the molecular weight markers is shown to the left of the figure.
For a binding assay, [^35S] methionine labeled proteins from total cell lysate were mixed with equal volume of 3–6% BSA in phosphate buffered saline (PBS) and incubated with overlapping hexapeptides covalently fixed to polypropylene rods. The peptides and total cell lysate were incubated overnight at 4° C. The rods were then removed and washed four times in PBS. The bound proteins were eluted by incubating the peptide-fixed rods in 1×SDS sample buffer for 60 minutes at room temperature with shaking. The peptides-fixed rods, were regenerated by incubation in PBS, containing 2% SDS and 1 mM β-mercaptoethanol at 65° C. in a sonicator for 30 minutes. Following the latter incubation, the rods were washed for five minutes in 65° C. ionized water and two minutes in 65° C. methanol. The peptides-fixed rods are now ready for the next round of screening. […]

| Substance | binding affinity to the 57 kDa protein in the overlapping hexapeptide scan [1] | binding of resynthesized hexapeptide to the 57 kDa protein [1] | binding of resynthesized hexapeptide to a ~41 kDa protein (~41 kDa protein) |
| --- | --- | --- | --- |
| SVRGSQ: N-terminal acetylated hexapeptide from the second region of HP-gp1 linker domain, covalently fixed to polypropylene rods (Ac-SVRGSQ; also: attached to polypropylene rods; listed as Homo sapiens) | bound with the highest affinity to the 57 kDa protein | bound specifically to the 57 kDa protein | bound specifically |
| RSSLIR: N-terminal acetylated hexapeptide from the second region of HP-gp1 linker domain, covalently fixed to polypropylene rods (Ac-RSSLIR; also: attached to polypropylene rods; listed as Homo sapiens) | bound with the highest affinity to the 57 kDa protein | bound specifically to the 57 kDa protein | bound specifically |
